{"source": "patent US7691392B2", "about": "(Kosan Biosciences Incorporated, priority 2005, dated 2010)", "key": {"[1]": {"assay": "Plasma pharmacokinetics of 17-AAG and 17-AG in the open-label dose escalating trial in MM patients", "procedure": "The total number of PK samples collected was approximately 110 mL of whole blood (7-8 tablespoons). If a patient experienced a potentially drug-related SAE, additional PK samples were collected. Blood was drawn from the contralateral arm to the infusion site using an indwelling catheter to avoid multiple needle sticks. […] The blood tube was inverted several times, and the tube placed in wet ice immediately pending separation of the plasma. If a catheter was used for blood collection, the fluid in the catheter was completely withdrawn prior to each sample collection and discarded. Plasma samples were kept on wet ice during collection and centrifugation. Plasma samples were split into two cryovials prior to freezing at −70° C.\nThe PK analysis was performed as follows. […] PK parameters were calculated on plasma concentration time data by non-compartmental analysis using Kinetica version 4.3 software (Innaphase, Champs sur Marne, France). AUC was calculated by the mixed log-linear rule: the linear rule was applied to the range where concentration was ascending and the log-linear rule was applied to the range where the concentration was descending. AUClast is the area from t=0 to tlast, the last sampling time. AUCextra is the extrapolated area from AUClast to infinity and AUCtotal=AUClast+AUCextra and is also named AUC0-∞ area under the concentration-time curve from time zero to infinity. The terminal rate constant λz was calculated on at least three points on the elimination curve with values greater than the lower limit of quantitation. […] Table 5 lists the areas, Cmax, and half-life for the metabolite 17-AG (mean±one standard deviation). […] There was no dose dependency for half-life, clearance or distributive volumes for these dose administrations."}, "[2]": {"conditions": "patients treated at 56 mg/m^2 17-AAG; cited from earlier work"}, "[3]": {"assay": "Cellular assays, relative potency of 17-AAG and 17-AG", "assay_type": "cell-based", "conditions": "17-AAG versus 17-AG"}}}
{"smiles": "CO[C@H]1/C=C\\C=C(/C)C(=O)NC2=CC(=O)C(N)=C(C[C@@H](C)C[C@H](OC)[C@H](O)[C@@H](C)/C=C(\\C)[C@@H]1OC(N)=O)C2=O", "note": "[17-AG, 17-aminogeldanamycin]", "values": [{"measurement": "time post infusion from which plasma level of 17-AG exceeded the parent drug", "setting": "[1]; 220 mg/m^2 cohort", "value": "approximately 7 hours"}, {"measurement": "change of AUCtotal between Day 1 and Day 11", "setting": "[1]; 17 patients, first vs fourth infusion", "value": "no pattern of increase or decrease"}, {"measurement": "dose proportionality of Cmax", "setting": "[1]; 150-340 mg/m^2 17-AAG", "value": "did not increased in a dose proportional manner"}, {"measurement": "time post infusion from which plasma level of 17-AG exceeded the parent drug", "setting": "[1]; 150 and 275 mg/m^2 cohorts", "value": "approximately 3 hours"}, {"measurement": "half-life", "setting": "[1]; human, plasma, intravenous", "value": "4.6 to 5.4", "unit": "h"}, {"measurement": "Vz", "setting": "[2]", "value": 203, "unit": "L/m^2"}, {"measurement": "clearance", "setting": "[2]", "value": 30.8, "unit": "L/h/m^2"}, {"measurement": "relative potency in cellular assays", "setting": "[3]", "value": "equipotent"}]}
